# Laboratory results published in patent publication US9062124B2, “GIP-based mixed agonists for treatment of metabolic disorders and obesity” (priority 2008, dated 2015).
# Where a SMILES comes first, the peptide text is derived from it. Bridges are numbered along the chain shown (N, C = ends). [ ]: non-standard residue; d: D form. Aib = CC(C)(N)C(=O)O
# Key:
# Assay type in all cases: cell-based
# [1] = system: glucagon receptor, GLP-1 receptor or GIP receptor; assay: Agonist profile across receptors assigned from the cAMP reporter assay data; conditions: assigned from the in vitro EC50 data of Tables 1-4
# [2] = target: T1, glucagon receptor (Homo sapiens, UniProt P47871); assay: cAMP synthesis functional assay (firefly luciferase reporter in HEK293 cells), glucagon receptor; conditions: Table 1; relative to the native hormone of the indicated receptor
# T1 construct: expressed in transfected cells; host or cells: HEK293
# [3] = target: T2, GIP receptor (Homo sapiens, UniProt P48546); assay: cAMP synthesis functional assay (firefly luciferase reporter in HEK293 cells), GIP receptor; conditions: Table 1; for GIP Receptor relative activity: relative to the native hormone of the indicated receptor
# T2 construct: expressed in transfected cells; host or cells: HEK293
# T2 sequence (P48546 22-466): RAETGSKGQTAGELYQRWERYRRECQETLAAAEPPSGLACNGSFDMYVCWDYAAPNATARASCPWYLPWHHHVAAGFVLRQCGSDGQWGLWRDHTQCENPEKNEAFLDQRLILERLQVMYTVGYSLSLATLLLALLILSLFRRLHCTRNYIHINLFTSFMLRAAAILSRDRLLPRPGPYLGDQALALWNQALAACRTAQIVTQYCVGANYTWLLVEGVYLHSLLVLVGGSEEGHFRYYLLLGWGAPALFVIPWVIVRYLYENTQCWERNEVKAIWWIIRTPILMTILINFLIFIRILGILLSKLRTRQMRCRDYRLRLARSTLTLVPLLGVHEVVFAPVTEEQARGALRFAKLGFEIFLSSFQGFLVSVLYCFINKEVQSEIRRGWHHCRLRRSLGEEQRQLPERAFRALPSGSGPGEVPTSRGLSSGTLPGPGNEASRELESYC
# [4] = target: T3, GLP-1 receptor (Homo sapiens, UniProt P43220); assay: cAMP synthesis functional assay (firefly luciferase reporter in HEK293 cells), GLP-1 receptor; conditions: Table 1; for GLP-1 Receptor relative activity: relative to the native hormone of the indicated receptor; for EC50: GLP-1 Receptor EC50, nM
# T3 construct: expressed in transfected cells; host or cells: HEK293
# T3 sequence (P43220 24-463, species assumed): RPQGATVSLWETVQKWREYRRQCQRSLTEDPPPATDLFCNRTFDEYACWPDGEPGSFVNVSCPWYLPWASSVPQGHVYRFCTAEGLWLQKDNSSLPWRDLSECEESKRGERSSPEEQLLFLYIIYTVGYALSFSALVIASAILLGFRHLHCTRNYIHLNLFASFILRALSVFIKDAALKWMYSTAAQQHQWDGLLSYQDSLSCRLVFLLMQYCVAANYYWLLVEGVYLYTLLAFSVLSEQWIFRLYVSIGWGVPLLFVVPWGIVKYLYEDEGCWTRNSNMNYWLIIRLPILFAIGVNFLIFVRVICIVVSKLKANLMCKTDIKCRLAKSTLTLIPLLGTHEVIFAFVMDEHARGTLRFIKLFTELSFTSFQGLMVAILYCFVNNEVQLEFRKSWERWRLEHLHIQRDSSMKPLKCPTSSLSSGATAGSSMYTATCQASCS
# T1 sequence (P47871 26-477): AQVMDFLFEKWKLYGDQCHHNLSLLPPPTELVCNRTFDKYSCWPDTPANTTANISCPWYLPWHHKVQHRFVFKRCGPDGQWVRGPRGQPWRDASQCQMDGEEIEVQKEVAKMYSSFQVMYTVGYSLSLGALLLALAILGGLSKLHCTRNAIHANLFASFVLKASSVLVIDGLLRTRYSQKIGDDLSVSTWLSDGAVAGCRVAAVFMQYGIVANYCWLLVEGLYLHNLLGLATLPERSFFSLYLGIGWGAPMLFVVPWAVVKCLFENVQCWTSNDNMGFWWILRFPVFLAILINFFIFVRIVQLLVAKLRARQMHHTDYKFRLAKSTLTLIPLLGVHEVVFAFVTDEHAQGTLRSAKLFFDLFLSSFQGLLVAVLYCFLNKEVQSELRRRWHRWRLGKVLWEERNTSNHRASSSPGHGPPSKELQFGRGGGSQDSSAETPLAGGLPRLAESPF
SMILES,receptor activity profile (glucagon / GLP-1 / GIP agonism) [1],Glucagon Receptor relative activity [2],GIP Receptor relative activity [3],GLP-1 Receptor relative activity [4],EC50 [4],"EC50 ([3]; GIP Receptor EC50, nM)"
CC[C@H](C)[C@H](NC(=O)[C@H](CO)NC(=O)[C@H](Cc1ccc(O)cc1)NC(=O)[C@H](CC(=O)O)NC(=O)[C@H](CO)NC(=O)[C@@H](NC(=O)[C@H](Cc1ccccc1)NC(=O)[C@@H](NC(=O)CNC(=O)[C@H](CCC(N)=O)NC(=O)C(C)(C)NC(=O)[C@@H](N)Cc1ccc(O)cc1)[C@@H](C)O)[C@@H](C)O)C(=O)N[C@@H](Cc1ccc(O)cc1)C(=O)N[C@@H](CC(C)C)C(=O)N[C@@H](CC(=O)O)C(=O)N[C@H]1CCC(=O)NCCCC[C@@H](C(=O)N[C@@H](CCC(=O)O)C(=O)N[C@@H](Cc2ccccc2)C(=O)N[C@H](C(=O)N[C@@H](CS)C(=O)N[C@@H](Cc2c[nH]c3ccccc23)C(=O)N[C@@H](CC(C)C)C(=O)N[C@@H](CC(C)C)C(=O)N[C@@H](C)C(=O)NCC(=O)NCC(=O)N2CCC[C@H]2C(=O)N[C@@H](CO)C(=O)N[C@@H](CO)C(=O)NCC(=O)N[C@@H](C)C(=O)N2CCC[C@H]2C(=O)N2CCC[C@H]2C(=O)N2CCC[C@H]2C(=O)N[C@@H](CO)C(N)=O)C(C)C)NC(=O)[C@H](C)NC(=O)[C@H](C)NC(=O)[C@H](CCC(N)=O)NC1=O [mt-158] (H-Y[Aib]QGTFTSDYSIYLDEQAAKEFVCWLLAGGPSSGAPPPS-NH2; lactam 16-20; N-terminus assumed),exemplary GLP-1/GIP/glucagon triagonist peptides,14.90%,17.82%,102.94%,–,–
CC[C@H](C)[C@H](NC(=O)[C@H](CC(C)C)NC(=O)[C@H](Cc1c[nH]c2ccccc12)NC(=O)[C@H](CC(N)=O)NC(=O)[C@@H](NC(=O)[C@H](Cc1ccccc1)NC(=O)[C@H](CCC(=O)O)NC(=O)[C@@H]1CCCCNC(=O)CC[C@H](NC(=O)[C@H](CC(=O)O)NC(=O)[C@H](CC(C)C)NC(=O)[C@H](Cc2ccc(O)cc2)NC(=O)[C@H](Cc2ccc(O)cc2)NC(=O)[C@H](CO)NC(=O)[C@H](Cc2ccc(O)cc2)NC(=O)[C@H](CC(=O)O)NC(=O)[C@H](CO)NC(=O)[C@@H](NC(=O)[C@H](Cc2ccccc2)NC(=O)[C@@H](NC(=O)CNC(=O)[C@H](CCC(N)=O)NC(=O)C(C)(C)NC(=O)[C@@H](N)Cc2ccc(O)cc2)[C@@H](C)O)[C@@H](C)O)C(=O)N[C@@H](CCC(N)=O)C(=O)N[C@@H](C)C(=O)N[C@@H](C(C)C)C(=O)N1)C(C)C)C(=O)N[C@@H](C)C(=O)NCC(=O)NCC(=O)N1CCC[C@H]1C(=O)N[C@@H](CO)C(=O)N[C@@H](CO)C(=O)NCC(=O)N[C@@H](C)C(=O)N1CCC[C@H]1C(=O)N1CCC[C@H]1C(=O)N1CCC[C@H]1C(=O)N[C@@H](CO)C(N)=O [mt-162] (H-Y[Aib]QGTFTSDYSYYLDEQAVKEFVNWLIAGGPSSGAPPPS-NH2; lactam 16-20; N-terminus assumed),exemplary GLP-1/GIP co-agonist peptides,0.97%,25.74%,109.09%,0.011 nM,–
CC[C@H](C)[C@H](NC(=O)[C@H](CO)NC(=O)[C@H](Cc1ccc(O)cc1)NC(=O)[C@H](CC(=O)O)NC(=O)[C@H](CO)NC(=O)[C@@H](NC(=O)[C@H](Cc1ccccc1)NC(=O)[C@@H](NC(=O)CNC(=O)[C@H](CCC(N)=O)NC(=O)C(C)(C)NC(=O)[C@@H](N)Cc1ccc(O)cc1)[C@@H](C)O)[C@@H](C)O)C(=O)N[C@@H](Cc1ccc(O)cc1)C(=O)N[C@@H](CC(C)C)C(=O)N[C@@H](CC(=O)O)C(=O)N[C@H]1CCC(=O)NCCCC[C@@H](C(=O)N[C@@H](CCC(=O)O)C(=O)N[C@@H](Cc2ccccc2)C(=O)N[C@H](C(=O)N[C@@H](CC(N)=O)C(=O)N[C@@H](Cc2c[nH]c3ccccc23)C(=O)N[C@@H](CC(C)C)C(=O)N[C@@H](CC(C)C)C(=O)N[C@@H](C)C(=O)NCC(N)=O)C(C)C)NC(=O)[C@H](C)NC(=O)[C@H](C)NC(=O)[C@H](CCC(N)=O)NC1=O [mt-164] (H-Y[Aib]QGTFTSDYSIYLDEQAAKEFVNWLLAG-NH2; lactam 16-20; N-terminus assumed),exemplary GLP-1/GIP/glucagon triagonist peptides,109.93%,16.46%,56.52%,–,0.164 nM
CC[C@H](C)[C@H](NC(=O)[C@H](CO)NC(=O)[C@H](Cc1ccc(O)cc1)NC(=O)[C@H](CC(=O)O)NC(=O)[C@H](CO)NC(=O)[C@@H](NC(=O)[C@H](Cc1ccccc1)NC(=O)[C@@H](NC(=O)CNC(=O)[C@H](CCC(N)=O)NC(=O)C(C)(C)NC(=O)[C@@H](N)Cc1ccc(O)cc1)[C@@H](C)O)[C@@H](C)O)C(=O)N[C@@H](Cc1ccc(O)cc1)C(=O)N[C@@H](CC(C)C)C(=O)N[C@@H](CC(=O)O)C(=O)N[C@H]1CCC(=O)NCCCC[C@@H](C(=O)N[C@@H](CCC(=O)O)C(=O)N[C@@H](Cc2ccccc2)C(=O)N[C@H](C(=O)N[C@@H](CC(N)=O)C(=O)N[C@@H](Cc2c[nH]c3ccccc23)C(=O)N[C@@H](CC(C)C)C(=O)N[C@@H](CC(C)C)C(=O)N[C@@H](C)C(=O)NCC(=O)NCC(=O)N2CCC[C@H]2C(=O)N[C@@H](CO)C(=O)N[C@@H](CO)C(=O)NCC(=O)N[C@@H](C)C(=O)N2CCC[C@H]2C(=O)N2CCC[C@H]2C(=O)N2CCC[C@H]2C(=O)N[C@@H](CO)C(=O)N[C@@H](CS)C(N)=O)C(C)C)NC(=O)[C@H](C)NC(=O)[C@H](C)NC(=O)[C@H](CCC(N)=O)NC1=O [mt-165] (H-Y[Aib]QGTFTSDYSIYLDEQAAKEFVNWLLAGGPSSGAPPPSC-NH2; lactam 16-20; N-terminus assumed),exemplary GLP-1/GIP/glucagon triagonist peptides,18.81%,27.03%,147.83%,0.023 nM,–
CC[C@H](C)[C@H](NC(=O)[C@H](CO)NC(=O)[C@H](Cc1ccc(O)cc1)NC(=O)[C@H](CC(=O)O)NC(=O)[C@H](CO)NC(=O)[C@@H](NC(=O)[C@H](Cc1ccccc1)NC(=O)[C@@H](NC(=O)CNC(=O)[C@H](CCC(N)=O)NC(=O)[C@@H](C)NC(=O)[C@@H](N)Cc1ccc(O)cc1)[C@@H](C)O)[C@@H](C)O)C(=O)N[C@@H](Cc1ccc(O)cc1)C(=O)N[C@@H](CC(C)C)C(=O)N[C@@H](CC(=O)O)C(=O)N[C@H]1CCC(=O)NCCCC[C@@H](C(=O)N[C@@H](CCC(=O)O)C(=O)N[C@@H](Cc2ccccc2)C(=O)N[C@H](C(=O)N[C@@H](CC(N)=O)C(=O)N[C@@H](Cc2c[nH]c3ccccc23)C(=O)N[C@@H](CC(C)C)C(=O)N[C@@H](CC(C)C)C(=O)N[C@@H](C)C(=O)NCC(=O)NCC(=O)N2CCC[C@H]2C(=O)N[C@@H](CO)C(=O)N[C@@H](CO)C(=O)NCC(=O)N[C@@H](C)C(=O)N2CCC[C@H]2C(=O)N2CCC[C@H]2C(=O)N2CCC[C@H]2C(=O)N[C@@H](CO)C(=O)N[C@@H](CS)C(N)=O)C(C)C)NC(=O)[C@H](C)NC(=O)[C@H](C)NC(=O)[C@H](CCC(N)=O)NC1=O [mt-166] (H-Y[dA]QGTFTSDYSIYLDEQAAKEFVNWLLAGGPSSGAPPPSC-NH2; lactam 16-20; N-terminus assumed),exemplary GLP-1/GIP/glucagon triagonist peptides,9.83%,5.94%,26.87%,–,–
